Our source for the viability and IC50 values is ChEMBL document CHEMBL3822355, “Synthesis and evaluation of substituted 4-(N-benzylamino)cinnamate esters as potential anti-cancer agents and HIV-1 integrase inhibitors” (Bioorg Med Chem Lett, 2016).

The nature of series [1]: Cytotoxicity against HEK293 cells assessed as cell viability at 100 uM after 48 hrs by resazurin assay. In kind it is cell-based. The note with it: human, read-out: Activity. (In general: The colour change of resazurin is a common sign of viable cells or microbes.)
In another series the test system is MDA-MB-231. The series is described as follows: Anti-cancer activity against human MDA-MB-231 cells assessed as reduction in cell viability after 72 hrs by WST-1 assay. Format: functional, cell-based. The note with it: MDA-MB-231, 72 h. (In general: Tetrazolium assays rely on reduction of a dye to a coloured formazan, in cell work by metabolically active cells.)

A further series deals with HeLa. The series is described as follows: Anti-cancer activity against human HeLa cells assessed as reduction in cell viability after 72 hrs by WST-1 assay. In kind it is functional, cell-based.

In general, IC50 refers to the point on the concentration scale where inhibition reaches its midpoint. With `COC(=O)/C=C/c1ccc(NCc2cc([N+](=O)[O-])ccc2O)cc1`, in series [1], the viability at 48 h, 100 µM came out at 108%. Moreover, the figures for the IC50 with MDA-MB-231 and with HeLa were 17.4 µM and 16 µM, respectively.
In the same order, the values of `COC(=O)/C=C/c1ccc(NCc2cc(Br)cc(Br)c2O)cc1` are 114%, 11.5 µM and 35.4 µM.
In the same order, the values of `COC(=O)/C=C/c1ccc(NCc2cc(Br)ccc2O)cc1` are 98.1%, 109 µM and 7.82 µM.
With `COC(=O)/C=C/c1ccc(NCc2cccc(OC)c2O)cc1`, the viability at 48 h, 100 µM in series [1] amounted to 114%. Moreover, the IC50 with MDA-MB-231 turned out to be 73.7 µM; in the series with HeLa, 3.04 µM.
Taken in the same sequence, the figures for `COC(=O)/C=C/c1ccc(NCc2cc(Cl)cc(Cl)c2O)cc1` were 107%, 9.61 µM and 25.9 µM.
Taken in the same sequence, the figures for `COC(=O)/C=C/c1ccc(NCc2cc(Cl)ccc2O)cc1` were 92.4%, 86.4 µM and 8.56 µM.
In the same order, the values of `COC(=O)/C=C/c1ccc(NCc2ccc(O)c(O)c2)cc1` are 114%, 36.6 µM and 78.1 µM.
Regarding `COC(=O)/C=C/c1ccc(NCc2ccccc2O)cc1`, the viability at 48 h, 100 µM in series [1] is 94.4%. Moreover, the IC50 with MDA-MB-231 stood at 31.7 µM; with HeLa, 7.17 µM.
Taken in the same sequence, the figures for `COC(=O)/C=C/c1ccc(NCc2cccc(O)c2O)cc1` were 82.3%, 32.6 µM and 68.2 µM.
As to `CC(=O)O[C@H]1C(=O)[C@@]2(C)[C@H]([C@H](OC(=O)c3ccccc3)[C@]3(O)C[C@H](OC(=O)[C@H](O)[C@@H](NC(=O)c4ccccc4)c4ccccc4)C(C)=C1C3(C)C)[C@]1(OC(C)=O)CO[C@@H]1C[C@@H]2O` [PACLITAXEL], the IC50 with HeLa stood at 0.0199 µM.
